From patent US20110183969A1, “ANTIFUNGAL COMBINATION THERAPY” (priority 2008, published 2011)

Columns and labels:
Assay type in all cases: cell-based
[1] = system: Fusarium solani FS2; experiment: 24 hr Fusarium solani MIC (RPMI medium, FS2); details: banded into grades, read-out: MIC
Protocol: Between 1 and 5 mgs of compound were accurately weighed out into a sterile Eppendorf tube. The compound was dissolved in DMSO to give a solution containing 5 mg/mL. Tubes were stored at −20° C. until required.
On the day of testing thawed solutions were vortex mixed to ensure homogeneity. 30 μL of solution was removed and added to 570 μL of sterile water in a separate sterile Eppendorf The thoroughly mixed solution was used to prepare a series of doubling dilutions in water, in a deep well plate. […] replicate plates were prepared using a Minitrak by aspirating 20 μL from each well into eleven clear polystyrene 96 well plates.
Spores of Aspergillus spp. (Aspergillus fumigatus [two strains], Aspergillus terreus [two strains], Aspergillus niger and Aspergillus flavus) were harvested from cultures grown on Sabarauds agar for 5 days, and resuspended in PBS/Tween 80 to approx 1×10^7 cfu/mL. Other filamentous fungi (Absidia corymbifera, Fusarium solani, Rhizomucor, Scedosporium spp., Trichophyton spp.), were grown on Sabarauds agar for 2-10 days and spores/hyphae resuspended in PBS/Tween to give approx 1×10^7 cfu/mL. Candida species (Candida albicans, Candida glabrata, Candida krusei, Candida parapsilosis and Candida tropicalis) were grown on Sabarauds agar, cells were harvested from the agar using a sterile loop and resuspended in PBS/Tween 80 to approx 1×10^6 cfu/mL. Each organism suspension was diluted in RPMI medium, containing 2% glucose and 0.135 M MOPS buffer (pH 7.0) to 0.5−2×10^4 cfu/mL for Aspergillus spp. and other filamentous fungi and 0.5-2×10^3 cfu/mL for yeast. 80 μL of an organism suspension was added to each well of the plate containing drug dilutions.
This produced MIC plates with a drug range 50-0.05 mg/L and organism inocula of 1-2×10^4 cfu/mL for Aspergillus spp. and other filamentous fungi and 1-2×10^3 cfu/mL for yeasts. All plates were incubated for 24-48 hrs at 35° C. Growth was assessed by monitoring the optical density at 485 nm for each well. The MIC of a compound is the lowest drug concentration that inhibits growth of an organism by >80% compared with a drug free control. MICs are recorded as mg/L. Other growth media can be used for susceptibility testing, and the activity of the described compounds can also be assessed in a medium comprising 1% glucose, 1% ammonium chloride and 0.5% yeast extract (YAG medium). To perform MIC tests in this medium, dilutions of compounds are prepared in microtitre plates as described above. Fungal strains to be tested are grown and harvested in an identical manner to that described above, each organism suspension is then diluted in YAG medium to 0.5-2×10^4 cfu/mL for Aspergillus spp. and other filamentous fungi and 0.5-2×10^3 cfu/mL for yeast. 80 μL of an organism suspension was added to each well of the plate containing drug dilutions. This produced MIC plates with a drug range 50-0.05 mg/L and organism inocula of 1-2×10^4 cfu/mL for Aspergillus spp. and other filamentous fungi and 1-2×10^3 cfu/mL for yeasts. All plates were incubated for 24 hrs at 35° C. Growth was assessed by monitoring the optical density at 485 nm for each well. The MIC of a compound is the lowest drug concentration that inhibits growth of an organism by >70% compared with a drug free control. MICs are recorded as mg/L. In cases where the MIC of an organism is […] mg/L the MIC is repeated using a concentration range of 0.5-0.0005 mg/L. MIC tests in YAG medium have more clear-cut endpoints and have slightly lower MICs than those performed in RPMI medium.
24 hr Fusarium solani MIC Results (RPMI Medium, FS2): […]

[2] = system: Aspergillus fumigatus AF210; experiment: Checkerboard titration (FIC) of an indolizine derivative with a second antifungal agent, RPMI medium; details: compound of Example 21 in combination with caspofungin, 48 hrs
Protocol: To determine the combined antifungal effect of indolizine derivatives of formula (I) and the second antifungal agent a checkerboard titration can be carried out. These are relatively simple tests to determine the combined effects of two compound. In the checkerboard titration doubling dilutions of compound A (e.g. an indolizine derivative of formula (I)) are prepared in every row across a microtitre plate and doubling dilutions of compound B (e.g. a second antifungal agent as described above) are prepared in every column down a microtitre plate. The activity of the two compounds in combination can be compared with the activity of each compound alone. In these experiments a narrow range of dilutions was tested for each compound around the MIC.
A stock solution of the compound of Example […] was prepared in DMSO. A stock solution of a second antifungal agent, in this case caspofungin, was 2 mg/ml.
The stock solution of the compound of Example 21 was diluted 1:2000 in water to 2.5 μg/ml. From this stock, aqueous solutions containing the following concentrations of the compound of Example 21 were prepared 0.9, 0.8, 0.7, 0.6, 0.5, 0.4, 0.3, 0.2, 0.1, 0.05, 0.025, 0.0125 μg/ml. […]
To determine the combined effect of the compounds the Fractional inhibitory concentration FIC was determined, where FIC is defined as: […]

[3] = system: Aspergillus fumigatus AF293; experiment: MIC (YAG medium); details: Aspergillus fumigatus; YAG medium; MIC banded into grades; AF293; read-out: MIC A. fumigatus (grade)
Procedure, shortened: (§1)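 Spores grown on Sabouraud agar and diluted in YAG medium (1% glucose, 1% ammonium chloride, 0.5% yeast extract) to final inocula of 1-2×10^4 cfu/mL over a 50-0.05 mg/L drug range. Read by OD485 after 24 hrs at 35° C. MIC (mg/L) is the lowest concentration inhibiting growth >70% versus drug-free control.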

[4] = system: Aspergillus niger; experiment: MIC (YAG medium); details: Aspergillus niger; YAG medium; MIC banded into grades; read-out: MIC A. niger (grade)
Procedure, shortened: as §1

[5] = system: Aspergillus flavus; experiment: MIC (YAG medium); details: Aspergillus flavus; YAG medium; MIC banded into grades; read-out: MIC A. flavus (grade)
Procedure, shortened: as §1

[6] = system: Aspergillus fumigatus AF210; experiment: MIC (YAG medium); details: Aspergillus fumigatus; YAG medium; MIC banded into grades; AF210; read-out: MIC A. fumigatus 210 (grade)
Procedure, shortened: as §1

[7] = system: Aspergillus terreus AT49; experiment: MIC (YAG medium); details: Aspergillus terreus; YAG medium; MIC banded into grades; AT49; read-out: MIC A. terreus 49 (grade)
Procedure, shortened: as §1

[8] = system: Aspergillus terreus AT4; experiment: MIC (YAG medium); details: Aspergillus terreus; YAG medium; MIC banded into grades; AT4; read-out: MIC A. terreus (grade)
Procedure, shortened: as §1

- MIC [1]: < 1 µg/mL
- MIC [3]: < 1 µg/mL
- MIC [4]: < 1 µg/mL
- MIC [5]: < 1 µg/mL
- MIC [6]: < 1 µg/mL
- MIC [7]: < 1 µg/mL
- MIC [8]: < 1 µg/mL
SMILES: Cc1cc(C)nc(N2CCN(c3ccc(NC(=O)C(=O)c4c(-c5ccccc5)cc5ccccn45)cc3)CC2)c1 [Example 21, N-{4-[4-(4,6-Dimethyl-pyridin-2-yl)-piperazin-1-yl]-phenyl}-2-oxo-2-(2-phenyl-indolizin-3-yl)-acetamide]
- FIC (fractional inhibitory concentration) [2]: 0.66
